Where “and” joins values, the source holds several entries; their conditions need not be identical. Equal values may be shown once.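 Exposure lasted 48 hours, with cells grown in 96-well plates and compounds tested at five concentrations. GI50 marks 50% less growth. TGI marks complete inhibition of growth.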
Experiments:
Assay in all cases: growth of human tumour cells (NCI), 48 h
HS 578T breast = system: HS 578T breast
CCRF-CEM leukemia = system: CCRF-CEM leukemia
UO-31 renal = system: UO-31 renal
HCC-2998 colon = system: HCC-2998 colon
SNB-19 CNS = system: SNB-19 CNS
SW-620 colon = system: SW-620 colon
RPMI-8226 leukemia = system: RPMI-8226 leukemia
KM12 colon = system: KM12 colon
CAKI-1 renal = system: CAKI-1 renal
IGROV1 ovarian = system: IGROV1 ovarian

Row | SMILES | GI50 (HS 578T breast) | TGI (HS 578T breast) | GI50 (CCRF-CEM leukemia) | TGI (CCRF-CEM leukemia) | GI50 (UO-31 renal) | TGI (UO-31 renal) | GI50 (HCC-2998 colon) | TGI (HCC-2998 colon) | GI50 (SNB-19 CNS) | TGI (SNB-19 CNS) | GI50 (SW-620 colon) | TGI (SW-620 colon) | GI50 (RPMI-8226 leukemia) | TGI (RPMI-8226 leukemia) | GI50 (KM12 colon) | TGI (KM12 colon) | GI50 (CAKI-1 renal) | TGI (CAKI-1 renal) | GI50 (IGROV1 ovarian) | TGI (IGROV1 ovarian)
1 | COc1ccc(-n2cc(-c3cc(OC)c(OC)c(OC)c3)c(C(=O)C(F)(F)F)c2C)cc1 | 53.1 µM | > 100 µM | 16.1 µM | > 100 µM | 4.6 µM | > 100 µM | > 100 µM | > 100 µM | > 100 µM | > 100 µM | > 100 µM | > 100 µM | 4.53 µM | > 100 µM | 32.6 µM | > 100 µM | 73.8 µM | > 100 µM | 85.7 µM | > 100 µM
2 | CCCCCCCCCCCCOC1C(C(COC2OC(C3COC(C)(C)O3)C3OC(C)(C)OC23)NC(=O)Nc2ccc(C(=O)O)cc2)OC2OC(C)(C)OC21 (stereo not given) | 3.46 µM | 13.2 µM | 0.306 µM | 0.577 µM | 3.99 µM | 13.3 µM | 2.05 µM | 3.82 µM | 4.41 µM | 14.6 µM | 3.26 µM | 11 µM | 1.69 µM | 4.29 µM | 2.22 µM | 4.36 µM | 5.45 µM | 17.6 µM | 2.11 µM | 4.87 µM
3 | CNC(=O)N(C)N=NCCCl | – | > 100 µM | – | > 100 µM | – | > 100 µM | – | > 100 µM | – | > 100 µM | – | > 100 µM | – | > 100 µM | – | > 100 µM | – | > 100 µM | – | > 100 µM
4 | Cn1nc(N)c2cc([C@@H]3Nc4ccc5[nH]ncc5c4[C@H]4C5CCC(C5)[C@@H]34)ccc21 (stereo not given in full) | 0.373 µM | 43.4 µM | 0.377 µM | > 43.4 µM | 0.831 µM | 40.8 µM | 1.5 µM | 13.4 µM | 2.34 µM | 34.8 µM | 0.391 µM | 28 µM | 0.36 µM | 3.69 µM | 0.486 µM | 15.2 µM | 0.334 µM | 33.4 µM | 0.756 µM | 22.8 µM
5 | CN1CCN(CCOc2ccc(-c3cnc4c(-c5ccccc5F)cnn4c3)cc2)CC1 | 2 µM | 5.22 µM | 1.85 µM | 4.77 µM | 1.33 µM | 2.69 µM | 1.73 µM | 3.25 µM | 1.73 µM | 3.26 µM | 1.77 µM | 3.26 µM | 1.57 µM | 5.44 µM | 0.647 µM | 2.12 µM | 1.56 µM | 2.9 µM | 1.81 µM | 3.58 µM
6 | CCOC(=O)CCCn1c(SC)nc2[nH]cc(-c3ccccc3)c2c1=O | 23.8 µM | 77.4 µM | 3.01 µM | 54.5 µM | 19.9 µM | 57.9 µM | > 100 µM | > 100 µM | 21 µM | > 100 µM | 20.7 µM | 78.6 µM | 14.6 µM | 36.3 µM | 16.8 µM | 38.2 µM | 15.8 µM | 45.1 µM | 16.5 µM | 47 µM
7 | CCCCCCNC(=O)c1cc(NCc2cc(O)ccc2O)ccc1O | 15.1 µM | > 100 µM | 0.409 µM | 46.5 µM | 1.22 µM | 2.76 µM | 16.1 µM | 31 µM | 14.9 µM | 28.6 µM | 8.75 µM | 33.1 µM | 0.371 µM | 6.47 µM | 11.5 µM | 29 µM | 4.35 µM | 18.5 µM | 12.7 µM | 38.7 µM
8 | CC(C)CCN1c2nc(Nc3cc(F)c(O)c(F)c3)ncc2N(C)C(=O)C1C (stereo not given) | 3.22 µM | 32.1 µM | 1.52 µM | 23.6 µM | 0.939 µM | 16.8 µM | 3.54 µM | 17.1 µM | 6.35 µM | > 100 µM | 4.09 µM | 27.4 µM | 2.82 µM | 11.5 µM | 2.92 µM | 14.7 µM | 2.84 µM | > 77.1 µM | 8.83 µM | > 61.2 µM
9 | O=C(Cc1ccc(/C=C/C(=O)c2ncc[nH]2)cc1)Nc1cc(F)c(F)c(F)c1 | 7.3 µM | > 25 µM | 2.79 µM | 13.9 µM | 3.36 µM | 6.56 µM | 3.57 µM | 7.03 µM | 4.07 µM | 9.93 µM | 1.88 µM | 6.79 µM | 0.665 µM | 1.79 µM | 2.81 µM | 6.85 µM | 3.68 µM | 7.05 µM | 3.31 µM | 9.68 µM
10 | C=C(c1nc2ccc(Cl)cc2[nH]c1=O)C(O)c1ccc(C(O)C(=O)c2nc3ccc(Cl)cc3[nH]c2=O)cc1 (stereo not given) | – | > 100 µM | – | > 100 µM | – | > 100 µM | – | > 100 µM | – | > 100 µM | – | > 100 µM | – | > 100 µM | – | > 100 µM | – | > 100 µM | – | > 100 µM
11 | COc1ccc2c(c1)CCCC(Br)C2=O (stereo not given) | – | > 94.3 µM | – | 1.48 µM | – | 4.71 µM | – | > 100 µM | – | 22.3 µM | – | > 33.3 µM | – | 5.5 µM | – | 12.8 µM | – | 9.45 µM | – | 4.28 µM
12 | O=C(Nc1ccc(Cl)cc1F)c1ccccc1O | 2.68 µM | 23.2 µM | 3.47 µM | > 100 µM | 1.25 µM | 6.65 µM | 3.07 µM | 13.1 µM | 3.23 µM | > 100 µM | 3.26 µM | > 100 µM | 1.97 µM | 7.32 µM | 2.97 µM | 20.3 µM | 2.37 µM | 13.6 µM | 1.43 µM | 64.3 µM
13 | O=c1c2sc(=S)n(-c3ccc(F)cc3)c2ncn1Cc1ccc(F)cc1F | 78.8 µM | > 100 µM | > 100 µM | > 100 µM | > 100 µM | > 100 µM | > 100 µM | > 100 µM | 75.8 µM | > 100 µM | > 100 µM | > 100 µM | > 100 µM | > 100 µM | > 100 µM | > 100 µM | 37.7 µM | > 100 µM | > 100 µM | > 100 µM
14 | Cc1ccc(C)c(C2=C(c3cn(C)c4ccccc34)C(=O)NC2=O)c1 | > 25 µM | > 25 µM | 5.42 µM | > 25 µM | 13.4 µM | > 25 µM | > 25 µM | > 25 µM | > 25 µM | > 25 µM | 13 µM | > 25 µM | > 22 µM | > 25 µM | 12.6 µM | > 25 µM | > 23.4 µM | > 25 µM | 24.8 µM | > 25 µM
15 | CCn1c(-c2nonc2N)nc2c(C#CC(C)(C)O)nc(OC[C@H](N)c3ccccc3)cc21 | 1.8 µM | 7.28 µM | 3.65 µM | 24.9 µM | 2.91 µM | 6.83 µM | 3.74 µM | 7.59 µM | 7.3 µM | 20.5 µM | 4.47 µM | 8.67 µM | 6.04 µM | 14 µM | 2.99 µM | 6.39 µM | 3.94 µM | 8.93 µM | 2.63 µM | 7.23 µM
16 | O=C(OC(CNc1cc(=O)n(Cc2ccccc2)c(=O)n1Cc1ccccc1)CN1CCCC1)c1ccccc1 (stereo not given) | > 100 µM | > 100 µM | 23.7 µM | > 100 µM | > 100 µM | > 100 µM | > 100 µM | > 100 µM | > 100 µM | > 100 µM | > 100 µM | > 100 µM | 29.3 µM | > 100 µM | > 100 µM | > 100 µM | > 100 µM | > 100 µM | > 100 µM | > 100 µM
17 | COc1ccc(CN2C(=O)/C(=C\C(=O)c3ccc(OCCN4CCCCC4)cc3)c3ccccc32)cc1 | 3.79 µM | 25.5 µM | 3.01 µM | 14 µM | 1.57 µM | 2.92 µM | 2.4 µM | 5.05 µM | 4.63 µM | 17.1 µM | 1.74 µM | 3.51 µM | 2.31 µM | 5.62 µM | 12 µM | 28.6 µM | 5.09 µM | 18.1 µM | 2.08 µM | 4.48 µM
18 | N#CC(=C1C=CC(=NO)C=C1)c1ccccc1 | 2.39 µM | 6.68 µM | 0.476 µM | 2.36 µM | 3.45 µM | 19 µM | 4.61 µM | 15 µM | 3.73 µM | 9.35 µM | 0.473 µM | 2.36 µM | 0.348 µM | 1.83 µM | 0.355 µM | 1.2 µM | 1.23 µM | 11.5 µM | 1.3 µM | 4.53 µM
19 | CCN(CC)CCCC(CNc1ccnc2cc(Cl)ccc12)c1ccc(Cl)cc1 (stereo not given) | 1.76 µM and 1.97 µM | 3.82 µM and 4.46 µM | 1.71 µM and 1.2 µM | 5.17 µM and 4.6 µM | 0.891 µM and 0.974 µM | 2.24 µM and 2.31 µM | 1.42 µM and 0.834 µM | 2.96 µM and 2.21 µM | 1.9 µM and 2.73 µM | 4.17 µM and 6.9 µM | 1.43 µM and 1.55 µM | 3.02 µM and 3.35 µM | 1.36 µM and 0.59 µM | 4.79 µM and 2.69 µM | 1.77 µM and 1.54 µM | 3.52 µM and 4.33 µM | 1.48 µM and 0.547 µM | 3.2 µM and 1.91 µM | 2.42 µM and 1.6 µM | 7.47 µM and 4.55 µM
20 | CC(CCC=O)CCOCc1ccccc1 (stereo not given) | – | > 100 µM | – | > 84.2 µM | – | > 100 µM | – | > 100 µM | – | > 100 µM | – | > 100 µM | – | > 100 µM | – | > 100 µM | – | > 60.8 µM | – | > 100 µM
21 | CCC(C)n1ncn(-c2ccc(N3CCN(c4ccc(OCC5COC(Cn6cncn6)(c6ccc(Cl)cc6Cl)O5)cc4)CC3)cc2)c1=O (stereo not given) | 7.42 µM | > 100 µM | > 100 µM | > 100 µM | 30 µM | > 100 µM | 84.1 µM | > 100 µM | 38.9 µM | > 100 µM | > 100 µM | > 100 µM | 0.973 µM | > 100 µM | 5.69 µM | > 100 µM | 2.88 µM | > 100 µM | 82.5 µM | > 100 µM
22 | NC(=O)NC1C(c2ccccc2)=C1c1ccccc1 | – | > 100 µM | – | > 100 µM | – | 28.8 µM | – | 35.8 µM | – | > 100 µM | – | 37.5 µM | – | 45.4 µM | – | 62.2 µM | – | > 100 µM | – | 28.4 µM
23 | CS(=O)(=O)Nc1ccc2c(c1)oc(=O)c1ccccc12 | – | > 100 µM | – | > 100 µM | – | > 100 µM | – | > 100 µM | – | > 100 µM | – | > 100 µM | – | > 100 µM | – | > 100 µM | – | > 100 µM | – | > 100 µM
24 | O=C1NC(=O)C(c2cnc3ccccn23)=C1c1cn2c3c(cc(F)cc13)CN(C(=O)N1CCCCC1)CC2 | 0.0115 µM | 60.9 µM | 2.69 µM | 49.3 µM | 2.54 µM | > 65.5 µM | 14.6 µM | 32.8 µM | 22.8 µM | > 87.5 µM | 14.2 µM | 45.8 µM | 15.9 µM | 46.6 µM | 10.6 µM | 25.4 µM | 1.24 µM | > 37.7 µM | 21 µM | > 80 µM
